Assay results as given in publication PMC2966298 (Journal of medicinal chemistry, 2010).
“Also recorded” adds a separate entry of the source. One block for each compound: values may come before it.

How the values were obtained:
[1] = biological target: T1, 15-hLO-1 (Homo sapiens, UniProt P16050); assay: Steady-state inhibition kinetics; details: replot of 1/Vmax vs inhibitor; AA substrate, 0.01% Triton X-100
T1 sequence (P16050 1-662): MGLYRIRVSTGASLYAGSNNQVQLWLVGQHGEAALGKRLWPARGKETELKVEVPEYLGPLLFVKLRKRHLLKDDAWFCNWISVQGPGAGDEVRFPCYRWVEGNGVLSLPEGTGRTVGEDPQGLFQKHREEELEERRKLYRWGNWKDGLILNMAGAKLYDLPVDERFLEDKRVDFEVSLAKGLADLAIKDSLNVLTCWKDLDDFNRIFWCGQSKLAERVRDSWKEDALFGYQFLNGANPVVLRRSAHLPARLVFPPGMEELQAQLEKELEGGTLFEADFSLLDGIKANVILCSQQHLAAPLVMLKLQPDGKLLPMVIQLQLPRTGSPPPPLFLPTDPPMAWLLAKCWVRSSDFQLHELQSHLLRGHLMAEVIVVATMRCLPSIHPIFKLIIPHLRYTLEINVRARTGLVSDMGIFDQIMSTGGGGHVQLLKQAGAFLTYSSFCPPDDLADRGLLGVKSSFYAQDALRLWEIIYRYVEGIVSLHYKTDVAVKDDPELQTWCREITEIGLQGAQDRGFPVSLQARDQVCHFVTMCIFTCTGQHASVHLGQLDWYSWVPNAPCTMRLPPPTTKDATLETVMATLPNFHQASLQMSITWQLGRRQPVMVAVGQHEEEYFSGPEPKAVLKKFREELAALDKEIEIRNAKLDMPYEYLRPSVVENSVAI

[2] = biological target: T2, Human reticulocyte 15-lipoxygenase-1 (15-hLO-1) (Homo sapiens, UniProt P16050); assay: Lipoxygenase UV-Vis assay; details: for fold loss in activity against 15-hLO-1 relative to lead 5: compared with compound 5 (19 nM)
T2 sequence (P16050 1-662): T1 sequence (P16050 1-662)

[3] = biological target: T1, 15-hLO-1; assay: Reversibility of inhibition; format: biochemical; details: 50 μM inhibitor, 10 min incubation, then 2 h dialysis
[4] = Solubility as noted during biochemical characterization; format: physicochemical; details: noted where Ki^app could not be obtained accurately
[5] = biological target: T1, 15-hLO-1; details: cited from earlier work

Ki’ (dissociation from the secondary site) [1]: 8100 ± 900 nM
fold loss in activity against 15-hLO-1 relative to lead 5 [2]: approximately 70 fold
SMILES: O=C(OCC#CCSc1nnc(-c2cccc3ccccc23)o1)c1c[nH]cn1 [Analogue 16]

reversibility of inhibition [3]: reversible
SMILES: O=C(OCC#CCSc1nnc(-c2cccc3ccccc23)o1)c1ccccc1F [Analogue 25]

solubility (in words) [4]: low solubility
SMILES: O=C(OCC#CCSc1nnc(-c2cc3ccccc3cc2O)o1)c1ccc(F)cc1 [Analogue 53]

IC50 [2]: 2000 nM
fold loss in activity against 15-hLO-1 relative to lead 5 [2]: 100 fold
SMILES: O=C(NCC#CCSc1nnc(-c2cccc3ccccc23)o1)c1cccs1 [Analogue 56]

IC50 [2]: 1300 nM
SMILES: O=C(OCC#CCNc1nnc(-c2cccc3ccccc23)o1)c1cccs1 [Analogue 60]

activity against 15-hLO-1 (in words) [2]: complete loss in activity
SMILES: Fc1ccc(COCC#CCSc2nnc(-c3cccc4ccccc34)o2)cc1 [Analogue 66]

The next lines start with the compound.

SMILES: O=C(OCC#CCSc1nnc(-c2ccc(F)cc2)o1)c1ccc(F)cc1 [Analogue 47]
IC50 [2]: < 10 nM

SMILES: O=C(OCC#CCSc1nnc(-c2cccc3ccccc23)s1)c1cccs1 [Analogue 58]
solubility (in words) [4]: noticeably less soluble; also recorded: low solubility

SMILES: O=C(OCc1ccc(CSc2nnc(-c3cccc4ccccc34)o2)cc1)c1ccc(F)cc1 [Analogue 62]
IC50 [2]: > 100000 nM

SMILES: O=C(CCC#CCSc1nnc(-c2cccc3ccccc23)o1)c1ccccc1 [Analogue 67]
solubility (in words) [4]: reduced solubility; also recorded: low solubility

SMILES: COc1ccc(-c2oc3cc(OC)c(OC)c(OC)c3c(=O)c2OC)cc1OC [hexamethoxyflavone]
IC50 [5]: 50000 nM
